Test results taken from a melting point compilation (Tetko et al.; mined from patent text by program, amines drawn as free bases though some values may be those of a salt).

Row | melting point [°C] | SMILES
1 | 110 to 112 | Cc1nc(N2C[C@@H](C)N(Cc3ccc(C(F)(F)F)cc3)C2=O)sc1C(N)=O
2 | 114 to 115 | COc1cc(-c2ccc(C=O)cc2)nc(C)n1
3 | 178 to 180 | Cc1cc2c(-c3cccc(-c4noc(=S)[nH]4)c3)c(CC(=O)Nc3ccc(F)cc3C(F)(F)F)c(=O)oc2cc1Cl
4 | 155 to 156 | CSCC(=O)Nc1cc(-c2c(-c3ccc(F)c(C)c3)nc3cccnn23)ccn1
5 | 150 to 151 | CCN(C(=O)C1CC1)c1cccc(-c2ccnc3c(Cl)cnn23)c1
6 | 190 to 192 | O=C(NCc1ccccc1N1CCOCC1)c1ccn2nc(-c3ccccc3)cc2n1
7 | 115 to 117 | CN(C)CCc1[nH]c2ccccc2c1CSc1ccc(Cl)cc1
8 | 185 to 186 | c1ccc(Cn2cccc2-c2nc(Nc3ccc(-c4ccccc4)cc3)nc(Nc3ccc(-c4ccccc4)cc3)n2)cc1
9 | 110 | CCc1sc2c(c1S(=O)(=O)c1ccc(OCCCN(C)C(C)c3ccc(OC)c(OC)c3)cc1)CN(Cc1ccccc1Cl)CC2 (stereo not drawn)
10 | 148 to 150 | CCCCc1nc(Cl)c(COC)n1Cc1ccc(-c2ccccc2NS(=O)(=O)C(F)(F)F)cc1
11 | 81 to 83 | O=C(COC(=O)Cc1ccccc1Nc1c(Cl)cccc1Cl)NCCO[N+](=O)[O-]
12 | 95 to 96.5 | COc1ncc([N+](=O)[O-])cc1C
13 | 205 | C#CCOc1ccc(S(=O)(=O)C2(C(=O)O)CCN(Cc3ccc(Cl)cc3)CC2)cc1
14 | 125 to 126 | Cc1cc(C)c2c(c1O)C(N)C(C1CCCCC1)C2 (stereo not drawn)
15 | 144 to 145 | CC(C)=C(C(=O)O)c1ccc(Cl)cc1
16 | 166 to 168 | O=C1Nc2ccc(Br)cc2C12OCCCO2
17 | 88 to 89 | COC(=O)CCc1oc(-n2ccnc2SC)nc1-c1ccc(Cl)cc1
18 | 64 to 65 | COCC(CCO)(OC)c1cccc(OCc2ccc3ccccc3c2)c1 (stereo not drawn)
19 | 170 to 172 | Cn1nc(-c2ccccc2)c(CC(=O)O)c1-c1ccccc1
20 | 127 to 129 | CC(C)CC1(CC(=O)NO)C(=O)N(CCc2ccccc2)C(=O)N1C (stereo not drawn)
21 | 106 to 108 | CC(C)(CCc1ccc(Cl)c(Cl)c1)CC(=O)O
22 | 148 to 149 | O=C(CNS(=O)(=O)c1ccccc1)c1ccc(OCc2ccccc2)cc1

The remaining lines, values behind:

Row | SMILES | melting point [°C]
23 | CC(=O)N1CCn2c1c(-c1ccccc1)c1ncccc1c2=O | 229 to 231
24 | COC12CC(CCOC(=O)c3ccc[nH]3)CN(C)C1Cc1cn(C)c3cccc2c13 (stereo not drawn) | 148 to 149
25 | Cc1cccc(Nc2cc(Nc3ccc(OCC#N)cc3)ncn2)c1 | 207 to 210
26 | Cc1cccc(-c2cc(Cl)nc3ccc(C(=O)c4ccc(Cl)cc4)cc23)c1 | 199
27 | CNc1cc(Oc2ccc3c(c2)OCCN3)ncn1 | 153
28 | Cc1cc(C(=O)N2Cc3ccc(C(=O)N(C)C[C@@H]4OC(=O)O[C@H]4[C@H](O)[C@H]4COC(=O)O4)n3Cc3ccccc32)ccc1C1=CCCCC1 | 162 to 168
29 | C=CCOc1nc(SC)nc(N2CCc3ccccc3CC2)c1C#N | 103 to 105
30 | CC1CCN(c2nc(-c3ncccn3)cc(Cl)c2-c2c(F)cccc2Cl)CC1 | 129
31 | COc1ccc(OC)c2[nH]c(-c3ccc(Cl)cc3)nc12 | 274 to 276
32 | CN(C)CCc1ccc(N)c2[nH]ncc12 | 125
33 | CCOC(=O)CCCN1C(=O)N(c2ccc(C#N)c(C(F)(F)F)c2)C(=O)C12CCOCC2 | 129 to 130
34 | CCOc1cc(C)c(CCl)c(C)c1C | 63 to 64
35 | CCN(CC)CCCCC1CCN(CCNC(=O)N2c3ccccc3C(=O)Nc3cccnc32)CC1 | 167
36 | CCCc1c(OCC(O)COc2cccc([N+](=O)[O-])c2C#N)ccc(C(C)=O)c1O (stereo not drawn) | 117 to 119
37 | O=C1C(Cl)=C(Nc2ccc(S(=O)(=O)Nc3ccccn3)cc2)C(=O)c2ccccc21 | 273 to 275
38 | Cc1ccccc1N1CCc2c(C)nc3c(C)cccc3c21 | 126 to 128
